Source: ChEMBL document CHEMBL1143788, “Trifunctional norrisolide probes for the study of Golgi vesiculation” (2007)
The source made the active and inactive calls. No cut-off for these calls is given here.

Assays:
[1] = system: NRK; test: Effect on Golgi fragmentation in NRK cells for 60 mins; type: functional, Rattus norvegicus
[2] = system: NRK; test: Effect on Golgi fragmentation in NRK cells at 30 uM for 60 mins; type: functional

SMILES: CC1(C)CCC[C@]2(C)[C@@H](OC(=O)c3cc(I)c(OCC4CO4)cc3OCC3CO3)CC[C@@H]12 (stereo not given in full)
- Activity [1]: >80%

SMILES: COC(=O)c1ccc(N=[N+]=[N-])cc1OCCCNC(=O)CCCC[C@@H]1SC[C@@H]2NC(=O)N[C@@H]21
- Activity ([2]; Rattus norvegicus): inactive

SMILES: CC1(C)CCC[C@]2(C)[C@@H](OC(=O)c3ccc(OCCCNC(=O)CCCC[C@@H]4SC[C@@H]5NC(=O)N[C@@H]54)cc3OCC3CO3)CC[C@@H]12 (stereo not given in full)
- Activity [1]: <10%

SMILES: CC1(C)CCC[C@]2(C)[C@@H](OC(=O)c3ccc(N=[N+]=[N-])cc3OCCCNC(=O)CCCC[C@@H]3SC[C@@H]4NC(=O)N[C@@H]43)CC[C@@H]12
- Activity [2]: 50%

SMILES: CC1(C)CCC[C@]2(C)[C@@H](OC(=O)c3ccc(OCC4CO4)cc3OCC(=O)NCCOCCOCCNC(=O)CCCC[C@@H]3SC[C@@H]4NC(=O)N[C@@H]43)CC[C@@H]12 (stereo not given in full)
- Activity ([1]; Rattus norvegicus): Active
